Assay results taken from patent US8093240B2, “Triazole derivatives” (Merck Patent GmbH, priority 2005, dated 2012).

These compounds were tested on TGF-beta (assay: Elimination of TGF-beta-mediated growth inhibition in Mv1Lu cells (Crystal Violet staining)). Conditions: 48 h; lung epithelial cell line Mv1Lu, 1 ng/ml TGF-beta, 0.5% FCS, two days.
Type: cell-based
Method: In-Vitro (Enzyme) Assay for Determination of the Efficacy of Inhibitors of the Inhibition of TGF-Beta-Mediated Effects
As an example, the ability of the inhibitors to eliminate TGF-beta-mediated growth inhibition is tested.
Cells of the lung epithelial cell line Mv1Lu are sown in a defined cell density in a 96-well microtitre plate and cultivated overnight under standard conditions. Next day, the medium is replaced by medium which comprises 0.5% of FCS and 1 ng/ml of TGF-beta, and the test sub-stances are added in defined concentrations, generally in the form of dilution series with 5-fold steps. The concentration of the solvent DMSO is constant at 0.5%. After a further two days, Crystal Violet staining of the cells is carried out. After extraction of the Crystal Violet from the fixed cells, the absorption is measured spectrophotometrically at 550 nm. It can be used as a quantitative measure of the adherent cells present and thus of the cell proliferation during the culture.

Structure (SMILES)	IC50 [µM]
Cc1cccc(-c2nnc3n2-c2ccc(O)cc2NCC3C)n1 (racemic) [Compound A1, (R,S)-8-hydroxy-4-methyl-1-(6-methylpyridin-2-yl)-5,6-dihydro-4H-2,3,6,10btetraazabenzo[e]azulene]	0.18
CC1CNc2cc(O)ccc2-n2c(-c3cccc(Cl)c3)nnc21 (racemic) [Compound A2, (R,S)-1-(3-Chlorophenyl)-4-methyl-5,6-dihydro-4H-2,3,6,10b-tetraazabenzo[e]azulen-8-ol]	0.97
Cc1cccc(-c2nnc3n2-c2ccc(Cl)cc2NCC3C)n1 (racemic) [Compound A3, (R,S)-8-Chloro-4-methyl-1-(6-methylpyridin-2-yl)-5,6-dihydro-4H-2,3,6,10b-tetraazabenzo[e]azulene]	3.5
COc1ccc2c(c1)NCC(C)c1nnc(-c3cccc(C)n3)n1-2 (racemic) [Compound A5, (R,S)-8-Methoxy-4-methyl-1-(6-methylpyridin-2-yl)-5,6-dihydro-4H-2,3,6,10b-tetraazabenzo[e]azulene]	2.4
COc1cccc(-c2nnc3n2-c2ccc(OC)cc2NCC3C)c1 (racemic) [Compound A6, (R,S)-8-Methoxy-1-(3-methoxyphenyl)-4-methyl-5,6-dihydro-4H-2,3,6,10b-tetraazabenzo[e]azulene]	3.9
COc1ccc2c(c1)NCC(C)c1nnc(-c3cc(Cl)ccc3F)n1-2 (racemic) [Compound A8, (R,S)-1-(5-Chloro-2-fluorophenyl)-8-methoxy-4-methyl-5,6-dihydro-4H-2,3,6,10b-tetraazabenzo[e]azulene]	6.6
CC1CNc2cc(O)ccc2-n2c(-c3cc(Cl)ccc3F)nnc21 (racemic) [Compound A9, (R,S)-1-(5-Chloro-2-fluorophenyl)-4-methyl-5,6-dihydro-4H-2,3,6,10b-tetraazabenzo[e]azulene-8-ol]	0.91
CCOc1cccc(-c2nnc3n2-c2ccc(Cl)cc2NCC3C)c1 (racemic) [Compound A10, (R,S)-8-Chloro-1-(3-ethoxyphenyl)-4-methyl-5,6-dihydro-4H-2,3,6,10b-tetraazabenzo[e]azulene]	5.7
COc1cccc(-c2nnc3n2-c2ccc(Cl)cc2NCC3C)c1 (racemic) [Compound B1, (R,S)-8-Chloro-1-(3-methoxyphenyl)-4-methyl-5,6-dihydro-4H-2,3,6,10b-tetraazabenzo[e]azulene]	7
Cc1cccc(-c2nnc3n2-c2ccc(Cl)cc2NC[C@@H]3C)n1 [Compound A4, (+)-(S)-8-Chloro-4-methyl-1-(6-methylpyridin-2-yl)-5,6-dihydro-4H-2,3,6,10b-tetraazabenzo[e]azulene]	3.8
Cc1cccc(-c2nnc3n2-c2ccc(O)cc2NCC3)n1 [Compound A7, 1-(6-Methylpyridin-2-yl)-5,6-dihydro-4H-2,3,6,10b-tetraazabenzo[e]azulen-8-ol]	2.2
Cc1cccc(-c2nnc3n2-c2ccc(O)cc2NC(C)C3)n1 (stereo not shown) [Compound A78, 5-Methyl-1-(6-methylpyridin-2-yl)-5,6-dihydro-4H-2,3,6,10b-tetraazabenzo[e]azulen-8-ol]	0.15
Cc1cccc(-c2nnc3n2-c2cc(NC(=O)C(C)(C)C)ccc2NCC3C)n1 (stereo not shown) [Compound A80, 2,2-Dimethyl-N-[4-methyl-1-(6-methylpyridin-2-yl)-5,6-dihydro-4H-2,3,6,10b-tetraazabenzo[e]azulen-9-yl]propionamide]	3.3
